Results taken from BindingDB's records for patent US10723705 (Incyte, 2020).

Target: T1, Histone deacetylase 8 (Homo sapiens, UniProt Q9BY41)
T1 sequence (Q9BY41 whole entry): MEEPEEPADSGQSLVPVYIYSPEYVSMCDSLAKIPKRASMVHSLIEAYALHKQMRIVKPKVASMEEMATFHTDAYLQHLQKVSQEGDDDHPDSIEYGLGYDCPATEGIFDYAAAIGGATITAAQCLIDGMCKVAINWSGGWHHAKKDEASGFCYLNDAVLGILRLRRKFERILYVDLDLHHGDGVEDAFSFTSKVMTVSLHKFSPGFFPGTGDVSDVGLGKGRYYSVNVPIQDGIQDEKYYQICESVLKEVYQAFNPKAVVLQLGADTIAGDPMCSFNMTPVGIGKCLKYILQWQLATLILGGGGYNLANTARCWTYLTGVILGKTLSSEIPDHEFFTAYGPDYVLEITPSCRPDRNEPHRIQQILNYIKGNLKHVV
Experiment: Enzymatic Assay
Protocol: HDAC-Glo I/II Assay Kit was purchased from Promega Corporation (Madison, Wis.), including the following components: HDAC-Glo I/II Buffer (25 mM Tris buffer, pH 8.0, supplemented with 137 mM: NaCl, 2.7 mM KCl, 1% v/v Triton X-100 and 1 mM: MgCl2), luminogenic substrates Boc-GAK(Ac)-aminoluciferin (HDAC-Glo I/II substrate), proprietary developer reagent (containing trypsin). Assay:The HDAC8 reaction was performed at room temperature in white 384-well polystyrene, flat-bottom microtiter plate (Greiner Bio-one, Monroe, N.C.) in a final volume of 20 μL. Test compounds were first diluted serially in DMSO and 100 nL were transferred to the plate wells by Echo 550 (Labcyte, Sunnyvale, Calif.) before the addition of other reaction components. The final concentration of DMSO in the assay was 0.5%. The HDAC-Glo I/II assay reagent was prepared by rehydration of lyophilized HDAC-Glo I/II substrate in 10 mL. HDAC-Glo I/II assay buffer followed with the addition of 10 μL of developer reagent. 10 uL of 3 nM HDAC8 in the HDAC-Glo I/II assay buffer were first dispensed into the microliter plate containing the compounds and incubated at room temperature for 30 min. The reactions were initiated with the addition of 10 uL HDAC-Glo I/II assay reagent with Multidrop.

Row | SMILES | IC50
1 | O=C(NO)C(Cc1ccccc1)N1C=CC2C=C(Cl)C=NC21 (stereo not drawn) [US10723705, No. I-0195] | in the range around 375 nM
2 | O=C(NO)C(Cc1ccccc1)N1C=CC2C(Cl)=NC=CC21 (stereo not drawn) [US10723705, No. I-0196] | in the range around 375 nM
3 | O=C(NO)C(Cc1ccccc1)N1N=CC2C(Cl)=NC=CC21 (stereo not drawn) [US10723705, No. I-0055] | in the range around 375 nM
